Data: patent US20260008801A1, “BIO-BASED SURFACTANTS DERIVED FROM CARBOHYDRATES” (COÖPERATIE KONINKLIJKE COSUN U.A., priority 2022, published 2026)

Columns and labels:
[1] = Solubility in water (excess of compound in 4 ml demi water); assay type: physicochemical; conditions: for Solubility: Table E5.2, water; for Solubility (%): Table E8
Experimental: Solubility is preferably solubility in aqueous solution, more preferably solubility in water, most preferably solubility in demineralised water. A skilled person knows how to assess such solubility.
Solubility in water was determined by preparing mixtures of an excess of compound dispersed in 4 ml demi water using a vortex at maximum speed for 1 min. […] 1 ml of the mixture was concentrated in vacuo to yield a solid. The mass of the solid was determined in mg to calculate the solubility in percentage by dividing by ten.

[2] = Foaming abilities, 1% compound solutions shaken by hand; assay type: physicochemical; design: key to FOAM: −: no foam formation; +: low foam formation; ++: moderate foam formation; +++: strong foam formation
Experimental: Foaming abilities were evaluated at room temperature by shaking 1% compound solutions (2 ml) of pH 3, 7, and 12 by hand for 10 s. The pH of each solution was assessed with a pH meter at room temperature. […] The foam heights at the initial time were compared to one another after which the foaming abilities were classified according to no foam formation (−), low foam formation (+), moderate foam formation (++), and strong foam formation (+++).

[3] = Solubility in media other than water (methanol, ethyl acetate, oils, 3:1 EtOH/H2O); assay type: physicochemical; conditions: for Solubility in 3:1 EtOH/H2O: 3:1 ethanol water ratio; for SOLUBILITY (H2O): medium named in the cell instead of water: Table E1, cell names the medium in which the compound is soluble
[4] = Foaming power and stability, Ultra-Turrax, 0.4% aq. surfactant; assay type: physicochemical; conditions: for Foamability (mL) after (min) 1 / Foamability (mL) after (min) 5 / Foamability (mL) after (min) 10: Table E5.2; for Foamability (mL) after (min) 1: foam volume after 1 min; for Foamability (mL) after (min) 5: foam volume after 5 min; for Foamability (mL) after (min) 10: foam volume after 10 min; for Foamability 1 min / Foamability 5 min / Foamability 30 min: Table E8; for Foamability 1 min: after 1 min; for Foamability 5 min: after 5 min; for Foamability 30 min: after 30 min
Experimental: Foaming power was also tested at room temperature with 5 mL of 0.4% aq. surfactant (20 mg) solution in a 50 mL measuring cylinder. After performing the Ultra-Turrax (a registered trademark for a high-performance dispersing instrument) for 20 seconds (8000 rpm), the initial height of the foam was measured for foam height. (volume in mL). Every time step of, 1, 3, 5, 10, 30, 60 minutes was noted. In addition, after 24 hours the stability was checked. Particularly, foaming power and stability of the surfactants were performed using an IKA Ultra-Turrax T25 with an 18 G dispersing element. At room temperature, an aqueous solution of 5 mL 0.4% surfactant in a 50 mL measuring cylinder (2.20 cm diameter) was mixed with the Ultra-Turrax for 20 seconds at 8000 rpm. The foam height (volume in mL) was denoted for 0, 1, 3, 5, 10, 30, 60 min and 24 hours. In addition, after 24 hours the stability was checked.

Zein = Zein solubilisation (skin irritation potential); conditions: SDS set as 100; for zein score / skin irritation potential value: pH 7
Experimental: Zein solubilisation was measured to determine the irritation of the surfactants. Zein is a simple protein found in corn. It is a very simple mimic of skin protein, the more solubilised by your material the harsher the potential to irritate and dry the skin. This method is a quick screen and provides indicative data. The procedure is 1) Weight 2-2.5 ml Eppendorf's on a 4 dp balance. 2) Weight out as accurately as possible 70 mg of Zein. 3) Add to the Eppendorf and reweigh. 4) Make your surfactant dilutions. 5) Add 1 ml of the surfactant dilution to the Eppendorf. 6) Place this on a rotary mixer for 20 mins at 20 rpm at RT. 7) Remove and centrifuge for 4 mins at highest speed available on a micro centrifuge 8) Discard the supernatant making sure as much of it possible is removed. 9) Repeat with water, centrifuge and discard supernatant. 10) With the Eppendorf lid open, place at 50° C. overnight to dry (48 hours required). 11) Re-weigh the next day. 12) Calculate the amount of Zein solubilised. The obtained data allows comparison of surfactants and their harshness to skin. Decisions for in vivo testing can be based on good Zein results.
The skin irritation potential of the surfactants was investigated using zein solubilisation, which is a commonly known assay. Zein is a very simple mimic of skin protein. The more zein is solubilized by the surfactant the harsher the potential to irritate and dry the human skin. […] The surfactants were measured at different pH values, a pH of 4-5, 7 and at their original pH as is.

[5] = Surface tension measurements, Wilhelmy plate (surface tension, CMC); assay type: physicochemical
Experimental: Surface tension measurements were performed with a Biolin Scientific Sigma701 automatic tension meter equipped with a Wilhelmy plate made of platinum (±0.5 mN/m). […] The number of experimental points is related to the compound's/surfactant's solubility and available quantity. All compound/surfactant solutions were allowed to stand 12 h before being measured. The platinum plate was thoroughly cleaned with demi water and flame-dried before each measurement. The CMC of each compound/surfactant was determined at the minimum of a breakpoint of a conventional plot of surface tension versus compound/surfactant concentration. DCMC was obtained by acquiring the surface tension at the CMC. The pC20 value was determined by taking the minus log of the concentration compound/surfactant at a surface tension of 52 mN/m.

[6] = system: activated sludge from a municipal wastewater treatment plant (WWTP); experiment: Biodegradability, OECD 301A DOC Die-Away Test (adjusted); conditions: inoculum with compound and sodium acetate
Experimental: Biodegradability of compounds was assessed. The compound is added to an inoculate of activated sludge from a municipal wastewater treatment plant (WWTP). The experiment relies on the basic principles of the 301A DOC Die-Away Test described in the OECD guidelines for readily biodegradable substances. A small adjustment was made where the measuring is not done in conical flasks but, instead, in serum vials closed with butylrubber stoppers. This allowed measurement of the evolution of CO2 and O2 over time. In general, the experiment involves the experimental incubation (inoculum and compound), along with a blank control (inoculum no compound), a positive control (inoculum and sodium acetate), and controls for abiotic degradation (compound in medium), adsorption (compound with sterilized inoculum), and toxicity (inoculum with compound and sodium acetate).
The fresh sludge was conditioned overnight by bubbling with air at room temperature. […]
Incubations were prepared containing approximately 70 mg/L surfactant and 3 ml sludge in a final volume of 30 ml mineral medium in a borosilicate serum vial crimp-sealed with a butyl rubber stopper. […] 1 ml samples were taken weekly for surfactant quantification and centrifuged 5 min at 20.000×g. […] CO2 was analyzed by measuring headspace gas on an Agilent 8890A/5977B GC-MS equipped with an Agilent 6 FT Porapak Q 80/10 column. […]

[7] = Table E3, N-alkylated compounds
[8] = Table E6, N-oxide compounds, in Salt form

With `CCCCCCCCNC(=O)[C@H](O)[C@@H](O)[C@@H](O)CO` [Compound 03, 1-(N-octyl)-L-arabinonamide] the “solubility in water, in words” value [1] was “poorly soluble”, the FOAM ([2]; Table E1) was “−” and the “Solubility in 3:1 EtOH/H2O” value [3] was “soluble”. For the same compound, the “SOLUBILITY (H2O): medium named in the cell instead of water” value (“SOLUBILITY (H2O): medium named” below) ([3]; in 3:1 ethanol/water) was 3:1 EtOH/H2O &, the “SOLUBILITY (H2O): medium named” value ([3]; in oil) was “in oil” and the “solubility in diverse oils, in words” value [3] was “soluble”.

For `CCCCCCCCCCNC(=O)[C@H](O)[C@@H](O)[C@@H](O)CO` [Compound 04, 1-(N-Decyl)-L-arabinonamide], the “solubility in water, in words” value [1] was “poorly soluble”, the FOAM ([2]; Table E1) was “−” and the “SOLUBILITY (H2O): medium named” value [3] was “In oil”. The “solubility in diverse oils, in words” value [3] was “soluble”.

For `CCCCCCCCN(C)C(=O)[C@H](O)[C@@H](O)[C@@H](O)CO` [Compound 17, N-methyl-N-octyl-L-arabinonamide], the “solubility in water, in words” value [1] was “well soluble”, the “SOLUBILITY (H2O)” value [1, 7] was “Soluble” and the “foaming behaviour / foam creation, in words” value [2] was “good foaming behaviour”. For the same compound, the FOAM ([2]; Table E3) was “++” and the “solubility in methanol, in words” value [3] was “well soluble”.

For `CCCCCCN(C)C(=O)[C@H](O)[C@@H](O)[C@@H](O)CO` [Compound 18, N-methyl-N-hexyl-L-arabinonamide], the “solubility in water, in words” value [1] was “well soluble”, the “SOLUBILITY (H2O)” value [1, 7] was “Soluble” and the FOAM ([2]; Table E3) was “−”. The “solubility in methanol, in words” value [3] was “well soluble”.

With `CCCCCCCCCCCCN(C)C(=O)[C@H](O)[C@@H](O)[C@@H](O)CO` [Compound 19, N-methyl-N-dodecyl-L-arabinonamide] the “solubility in water, in words” value [1] was “well soluble”, the “SOLUBILITY (H2O)” value [1, 7] was “Soluble” and the FOAM ([2]; Table E3) was “++”. For the same compound, the “solubility in ethyl acetate, in words” value ([3]; ethyl acetate) was “well soluble” and the “solubility in methanol, in words” value [3] was “well soluble”.

For `CCCCCCCCN(C)C(=O)[C@H](O)[C@@H](O)[C@@H](O)[C@H](O)C(=O)O` [Compound 20], the “solubility in water, in words” value [1] was “well soluble”, the “SOLUBILITY (H2O)” value [1, 7] was “Soluble” and the “foaming behaviour / foam creation, in words” value [2] was “good foaming behaviour”. The FOAM ([2]; Table E3) was “++” and the “solubility in methanol, in words” value [3] was “well soluble”.

With `CCCCCCCCCCCCN(C)C(=O)[C@H](O)[C@@H](O)[C@@H](O)[C@H](O)C(=O)O` [Compound 22] the “solubility in water, in words” value [1] was “well soluble”, the “SOLUBILITY (H2O)” value [1, 7] was “Soluble” and the “foaming behaviour / foam creation, in words” value [2] was “good foaming behaviour”. For the same compound, the FOAM ([2]; Table E3) was “++” and the “solubility in methanol, in words” value [3] was “well soluble”.

In the case of `CCCCCCCCN(C)C[C@H](O)[C@@H](O)[C@@H](O)[C@H](O)C(=O)O` [Compound 31, N-methyl-N-octyl-D-galacturonic acid amine], the “solubility in H2O” value [1] is reported as 15%, the “SOLUBILITY (H2O)” value ([1]; Table E5) is reported as 15% and the Solubility [1] is reported as 15%. The FOAM ([2]; Table E5, pH > 7.3) was “++”, the “Foamability (mL) after (min) 1” value [4] was 4.5 mL and the “Foamability (mL) after (min) 5” value [4] was 4 mL. The “Foamability (mL) after (min) 10” value [4] was 4 mL, the “zein score / skin irritation potential value” (Zein) was 1 and the “CMC (%)” value ([5]; Table E5) was 1.15%. The “SURFACE TENSION” value ([5]; Table E5, room temperature, pH 7) was 32.067 mN/m, the “CMC (%)” value ([5]; Table E5.2) was 1.15% and the “Surface tension (nM/m)” value ([5]; Table E5.2) was 32.1 mN/m. The SURFACE TENSION ([5]; running text b302) was 31.5 mN/m and the “inhibition of breakdown of acetate (toxicity control)” value [6] was “did not inhibit”.

In the case of `CCCCCCNC[C@H](O)[C@@H](O)[C@@H](O)[C@H](O)C(=O)O` [Compound 37, N-hexyl-D-galacturonic acid amine, reference compound], the “SOLUBILITY (H2O)” value ([1]; Table E5) is reported as 14%, the Solubility [1] is reported as 14% and the FOAM ([2]; Table E5, pH not given) is reported as “−”. The “Solubility in 3:1 EtOH/H2O” value [3] was “(Poorly in 3:1”.

In the case of `CCCCCCCCCC[N+](C)([O-])C[C@H](O)[C@@H](O)[C@@H](O)[C@H](O)C(=O)O` (stereo partly shown) [Compound 42b], the “SOLUBILITY (H2O)” value [1, 8] is reported as 8%, the “Solubility (%)” value [1] is reported as 8% and the FOAM ([2]; Table E6, in Salt form) is reported as “+++”. The “Foamability 1 min” value [4] was 6 mL, the “Foamability 5 min” value [4] was 6 mL and the “Foamability 30 min” value [4] was 5 mL. For the same compound, the “CMC (%)” value ([5]; Table E6, in Salt form) was 0.08%, the “SURFACE TENSION” value ([5]; Table E6, in Salt form) was 25.17 mN/m and the “CMC (%)” value ([5]; Table E8) was 0.08%. For the same compound, the “Surface tension (nM/m)” value ([5]; Table E8) was 25.17 mN/m.

With `CCCCCCCCCCCC[N+](C)([O-])C[C@H](O)[C@@H](O)[C@@H](O)[C@H](O)C(=O)O` (stereo partly drawn) [Compound 43, N-methyl-N-dodecyl-D-galacturonic acid amine oxide] the “SOLUBILITY (H2O)” value [1, 8] was 7%, the “Solubility (%)” value [1] was 7% and the FOAM ([2]; Table E6, in Salt form) was “+++”. For the same compound, the “Foamability 1 min” value [4] was 5 mL, the “Foamability 5 min” value [4] was 4 mL and the “Foamability 30 min” value [4] was 4 mL. The “CMC (%)” value ([5]; Table E6, in Salt form) was 0.058%, the “SURFACE TENSION” value ([5]; Table E6, in Salt form) was 25.551 mN/m and the “CMC (%)” value ([5]; Table E8) was 0.058%. For the same compound, the “Surface tension (nM/m)” value ([5]; Table E8) was 25.55 mN/m.

In the case of “sodium laureth sulfate [SLES, reference compound]”, the Solubility [1] is reported as 28%, the “SOLUBILITY (H2O)” value ([1]; Table E7, commercially available surfactants) is reported as “Yes” and the “Solubility (%)” value [1] is reported as 28%. For the same compound, the FOAM ([2]; Table E7) was “++”, the “Foamability (mL) after (min) 1” value [4] was 4 mL and the “Foamability (mL) after (min) 5” value [4] was 4 mL. For the same compound, the “Foamability (mL) after (min) 10” value [4] was 3 mL, the “Foamability 1 min” value [4] was 4 mL and the “Foamability 5 min” value [4] was 4 mL. For the same compound, the “Foamability 30 min” value [4] was 3 mL, the “zein score / skin irritation potential value” (Zein) was 49 and the “skin irritation potential value (zein)” value (Zein; pH11) was greater than 49. The “concentration at which the surface tension is reached” value [5] was 0.02%, the “CMC (%)” value ([5]; Table E5.2) was 0.2% and the “Surface tension (nM/m)” value ([5]; Table E5.2) was 33.8 mN/m. For the same compound, the “CMC (%)” value ([5]; Table E7) was 0.2%, the “SURFACE TENSION” value ([5]; Table E7) was 36.5 mN/m and the “CMC (%)” value ([5]; Table E8) was 0.2%. For the same compound, the “Surface tension (nM/m)” value ([5]; Table E8) was 33.8 mN/m.
